Experimental findings from US9284303B2, “Benzimidazole cannabinoid agonists bearing a substituted heterocyclic group” (priority 2006, dated 2016) are described below.

Series [1] addresses T1, human CB2 (hCB2) receptor (Homo sapiens, UniProt P34972).
T1 construct: expressed in transfected cells; host or cells: CHO-K1
The experiment in a line: Inhibition of forskolin-activated cAMP production upon activation of hCB2 (HTRF), CHO-K1 cells. Format: cell-based. As to conditions: for ratio CB2 agonism over CB1 agonism: Table C-1, selectivity hCB2 over hCB1; for EC50: hCB2-CHO-K1 cells, forskolin-activated cAMP, pEC50=-log(EC50), read-out: CB2 pEC50 (converted). A general note: Cyclic AMP is a second messenger, typically raised through Gs and lowered through Gi signalling.

Series [2] deals with T2, human CB1 (hCB1) receptor (Homo sapiens, UniProt P21554).
T2 construct: expressed in transfected cells; host or cells: CHO-K1
The experiment in a line: Inhibition of forskolin-activated cAMP production upon activation of hCB1 (HTRF), CHO-K1 cells. Conditions: CB1 pEC50, hCB1-CHO-K1 cells, forskolin-activated cAMP, pEC50=-log(EC50). Format: cell-based. In outline: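 CHO-K1 cells stably expressing hCB1 (20,000/well) were in HBSS stimulation buffer (1 mM IBMX, 10 mM MgCl2, 0.1% BSA, pH 7.4), with 6 μM forskolin in the compound buffer, 30 min at room temperature in the dark. cAMP was read as HTRF 665/620 ratio, normalized to DMSO and CP55490. Outputs were pEC50 and inhibition at 10 μM relative to CP55490.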

Molecules are shown by their SMILES.

T2 sequence (P21554 whole entry): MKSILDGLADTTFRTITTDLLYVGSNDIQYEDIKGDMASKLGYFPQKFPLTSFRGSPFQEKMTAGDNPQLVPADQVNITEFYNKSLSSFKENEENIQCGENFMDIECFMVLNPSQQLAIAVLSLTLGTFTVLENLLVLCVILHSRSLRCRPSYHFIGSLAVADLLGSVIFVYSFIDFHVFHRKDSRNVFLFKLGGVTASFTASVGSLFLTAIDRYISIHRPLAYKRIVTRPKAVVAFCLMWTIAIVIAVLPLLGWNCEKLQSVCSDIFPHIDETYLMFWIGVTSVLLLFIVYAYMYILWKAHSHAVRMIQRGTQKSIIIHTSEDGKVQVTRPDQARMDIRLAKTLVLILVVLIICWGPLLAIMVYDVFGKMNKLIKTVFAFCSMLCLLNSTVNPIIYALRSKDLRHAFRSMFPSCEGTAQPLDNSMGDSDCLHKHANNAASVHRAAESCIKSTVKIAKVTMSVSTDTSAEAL
T1 sequence (P34972 whole entry): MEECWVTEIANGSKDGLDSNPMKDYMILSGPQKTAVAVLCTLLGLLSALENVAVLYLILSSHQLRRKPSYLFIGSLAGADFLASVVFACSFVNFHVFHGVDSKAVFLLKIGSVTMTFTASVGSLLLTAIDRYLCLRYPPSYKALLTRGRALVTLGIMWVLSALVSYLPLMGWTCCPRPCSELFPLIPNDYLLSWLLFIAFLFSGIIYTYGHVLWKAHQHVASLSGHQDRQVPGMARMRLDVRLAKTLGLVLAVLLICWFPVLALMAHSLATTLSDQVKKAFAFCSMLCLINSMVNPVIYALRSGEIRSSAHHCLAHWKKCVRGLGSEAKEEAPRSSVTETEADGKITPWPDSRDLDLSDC

Broadly, the melting point is the temperature of the solid-liquid transition. With `Cn1ccc(S(=O)(=O)c2ccc3c(c2)nc(C(C)(C)C)n3CC2CCOCC2)cc1=O` [Co. No. 69], the melting point came to 216 °C. Further, in series [1], the “ratio CB2 agonism over CB1 agonism” value is on record as 398 and the EC50 was 1.74 nM. Also, the EC50 in series [2] is 692 nM.

Regarding `CC(C)(C)c1nc2cc(S(=O)(=O)c3cc(Cl)nc(Cl)c3)ccc2n1CC1CCOCC1` [Co. No. 71], the melting point turned out to be 198 °C. Besides, in series [1], the “ratio CB2 agonism over CB1 agonism” value was above 13490 and the EC50 is 0.741 nM. The compound also returned an EC50 in series [2] above 10000 nM.

The compound `COc1cc(S(=O)(=O)c2ccc3c(c2)nc(C(C)(C)C)n3CC2CCOCC2)c(F)cn1` [Co. No. 72] returned a melting point of 139.6 to 140.2 °C. For the same compound, in series [1], the “ratio CB2 agonism over CB1 agonism” value is listed as 1525 and the EC50 was 0.676 nM. This compound showed an EC50 in series [2] of 1020 nM.

As to `CC(C)(C)c1nc2cc(S(=O)(=O)c3ccc(C(N)=O)s3)ccc2n1CC1CCOCC1` [Co. No. 73], the melting point amounted to 209.4 °C. Also, in series [1], the “ratio CB2 agonism over CB1 agonism” value is 84 and the EC50 is 1.38 nM. In series [2], this compound gave an EC50 of 117 nM.

`COC(=O)c1cc(S(=O)(=O)c2ccc3c(c2)nc(C(C)(C)C)n3CC2CCOCC2)c[nH]1` [Co. No. 75] registered a melting point of 231 °C. In series [1], the “ratio CB2 agonism over CB1 agonism” value is given as 2291 and the EC50 was 4.17 nM. The same compound showed an EC50 in series [2] of 9550 nM.

Regarding `CC(C)(C)c1nc2cc(S(=O)(=O)c3ccc(C(=O)N4CCOCC4)s3)ccc2n1CC1CCOCC1` [Co. No. 79], the melting point turned out to be 184.6 °C. In series [1], the “ratio CB2 agonism over CB1 agonism” value came to 543 and the EC50 was 2.95 nM. In addition, the EC50 in series [2] is 1580 nM.

In turn, `CC(C)(C)c1nc2cc(S(=O)(=O)c3ccc(C(=O)N4CCOCC4)o3)ccc2n1CC1CCOCC1` [Co. No. 80] displayed a melting point of 172.1 °C. Besides, in series [1], the “ratio CB2 agonism over CB1 agonism” value worked out at 2483 and the EC50 is 4.17 nM. The compound also had an EC50 in series [2] of 10500 nM.

On to `COC(=O)c1cc(C)c(S(=O)(=O)c2ccc3c(c2)nc(C(C)(C)C)n3CC2CCOCC2)s1` [Co. No. 81], for which the melting point worked out at 185.8 °C. Also, in series [1], the “ratio CB2 agonism over CB1 agonism” value was determined as 2138 and the EC50 was 0.501 nM. Further, the EC50 in series [2] was 1070 nM.

Consider `CC(C)(C)c1nc2cc(S(=O)(=O)c3cc(O)ncc3F)ccc2n1CC1CCOCC1` [Co. No. 82], for which the melting point was 291.8 to 294.6 °C. In series [1], the “ratio CB2 agonism over CB1 agonism” value amounted to 407 and the EC50 is 3.89 nM. The compound also showed an EC50 in series [2] of 1580 nM.

`CC(C)(C)c1nc2cc(S(=O)(=O)c3c(Cl)cncc3Cl)ccc2n1CC1CCOCC1` [Co. No. 84] yielded a melting point of 242.9 °C. Moreover, in series [1], the “ratio CB2 agonism over CB1 agonism” value is 490 and the EC50 was 1.26 nM. This compound registered an EC50 in series [2] of 617 nM.

Turning to `CC(C)(C)c1nc2cc([S+]([O-])c3c(Cl)cncc3Cl)ccc2n1CC1CCOCC1` (centres unmarked) [Co. No. 85], the melting point amounted to 192.9 °C. Besides, in series [1], the “ratio CB2 agonism over CB1 agonism” value turned out to be 891 and the EC50 is 0.933 nM. This compound also had an EC50 in series [2] of 832 nM.

On to `CC(C)(C)c1nc2cc(S(=O)(=O)c3cc[n+]([O-])cc3Br)ccc2n1CC1CCOCC1` [Co. No. 87], for which the melting point was determined as 205.3 °C. Besides, the EC50 in series [1] is 2.14 nM. This compound gave an EC50 in series [2] of 2290 nM.

`CC(C)(C)c1nc2cc([S+]([O-])c3ccncc3Br)ccc2n1CC1CCOCC1` (centres unmarked) [Co. No. 88]: the melting point was 184.7 °C. In addition, in series [1], the “ratio CB2 agonism over CB1 agonism” value is 537 and the EC50 was 2.34 nM. The EC50 in series [2] is 1260 nM.

Take `Cc1cc(S(=O)(=O)c2ccc3c(c2)nc(C(C)(C)C)n3CC2CCOCC2)cc[n+]1[O-]` [Co. No. 89]: the melting point was 215.3 °C. The EC50 in series [1] was 11.2 nM. The compound further gave an EC50 in series [2] above 10000 nM.

Regarding `CC(C)(C)c1nc2cc(S(=O)(=O)c3ccn(/C(F)=C/I)c(=O)c3)ccc2n1CC1CCOCC1` [Co. No. 90], the melting point worked out at 113.9 °C. Moreover, in series [1], the “ratio CB2 agonism over CB1 agonism” value is given as above 3715 and the EC50 was 2.69 nM. For the same compound, in series [2], the EC50 was above 10000 nM.

Compound `COc1ccc(S(=O)(=O)c2ccc3c(c2)nc(C(C)(C)C#N)n3CC2CCOCC2)nn1` [Co. No. 92] came in with a melting point of 161.1 °C. Also, in series [1], the “ratio CB2 agonism over CB1 agonism” value turned out to be 437 and the EC50 was 6.92 nM. Also, the EC50 in series [2] is 2950 nM.

In turn, `CC(C)(C)c1nc2cc(S(=O)(=O)c3ccc(=O)[nH]n3)ccc2n1CC1CCOCC1` [Co. No. 94] displayed a melting point of 218.3 °C. For the same compound, in series [1], the “ratio CB2 agonism over CB1 agonism” value stood at 1059 and the EC50 is 2.51 nM. Also, in series [2], the EC50 is 2690 nM.

With `CC(=O)Nc1cc(S(=O)(=O)c2ccc3c(c2)nc(C(C)(C)C)n3CC2CCOCC2)cc[n+]1[O-]` [Co. No. 96], the melting point worked out at 247.2 °C. Besides, in series [1], the EC50 is 2 nM. This compound had an EC50 in series [2] above 10000 nM.

In turn, `CC(C)(C)c1nc2cc(S(=O)(=O)c3ccn(CC(F)(F)F)c(=O)c3)ccc2n1CC1CCOCC1` [Co. No. 97] registered a melting point of 152.9 °C. For the same compound, in series [1], the “ratio CB2 agonism over CB1 agonism” value was found to be 2065 and the EC50 is 1.86 nM. The EC50 in series [2] was 3890 nM.

As for `CC(C)(C)c1nc2cc(S(=O)(=O)c3cccc(C#N)n3)ccc2n1CC1CCOCC1` [Co. No. 98], the melting point lay in the range of 224.5 to 226.7 °C. Besides, in series [1], the “ratio CB2 agonism over CB1 agonism” value came to 794 and the EC50 is 0.955 nM. In addition, the EC50 in series [2] was 741 nM.

`CC(C)(C)c1nc2cc(S(=O)(=O)c3ccc(C(F)(F)F)cn3)ccc2n1CC1CCOCC1` [Co. No. 99] yielded a melting point of 140.5 to 142.3 °C. In series [1], the “ratio CB2 agonism over CB1 agonism” value is given as 700 and the EC50 is 1.32 nM. The compound further showed an EC50 in series [2] of 933 nM.

`Cn1nc(S(=O)(=O)c2ccc3c(c2)nc(C(C)(C)C)n3CC2CCOCC2)ccc1=O` [Co. No. 100] returned a melting point of 224.3 °C. Also, in series [1], the “ratio CB2 agonism over CB1 agonism” value is listed as 631 and the EC50 is 1.58 nM. This compound gave an EC50 in series [2] of 1000 nM.

In turn, `CC(=O)Nc1ccc(S(=O)(=O)c2ccc3c(c2)nc(C(C)(C)C)n3CC2CCOCC2)nn1` [Co. No. 101] registered a melting point of 290.1 °C. In series [1], the “ratio CB2 agonism over CB1 agonism” value was found to be 58 and the EC50 is 2.51 nM. In series [2], this compound gave an EC50 of 148 nM.

In turn, `Cc1cc(S(=O)(=O)c2ccc3c(c2)nc(CC(C)(C)C)n3CC2CCOCC2)cc[n+]1[O-]` [Co. No. 102] showed a melting point of 231.7 °C. In series [1], the EC50 was 5.01 nM. Besides, the EC50 in series [2] is 9120 nM.

As to `CC(C)(C)Cc1nc2cc(S(=O)(=O)c3cc[n+]([O-])cc3)ccc2n1CC1CCOCC1` [Co. No. 103], the melting point worked out at 259.7 °C. Further, the EC50 in series [1] is 7.08 nM. In addition, the EC50 in series [2] is 2090 nM.

In turn, `CC(C)(C)c1nc2cc(S(=O)(=O)c3ncccc3C#N)ccc2n1CC1CCOCC1` [Co. No. 104] showed a melting point of 100 to 105 °C. In series [1], the “ratio CB2 agonism over CB1 agonism” value is on record as 117 and the EC50 was 0.741 nM. This compound also gave an EC50 in series [2] of 87.1 nM.

For the compound `CC(C)(C)c1nc2cc(S(=O)(=O)c3cc(C(F)(F)F)ccn3)ccc2n1CC1CCOCC1` [Co. No. 105], the melting point is 139.5 to 141 °C. For the same compound, in series [1], the “ratio CB2 agonism over CB1 agonism” value is recorded as 295 and the EC50 is 1.58 nM. Further, the EC50 in series [2] is 479 nM.

`CC(C)(C)c1nc2cc(S(=O)(=O)c3coc(C(F)(F)F)c3)ccc2n1CC1CCOCC1` [Co. No. 106] had a melting point of 168 to 169.5 °C. In addition, in series [1], the “ratio CB2 agonism over CB1 agonism” value came to 432 and the EC50 is 0.724 nM. In series [2], the EC50 was 316 nM.

`Cc1nccc(S(=O)(=O)c2ccc3c(c2)nc(C(C)(C)C)n3CC2CCOCC2)n1` [Co. No. 107] gave a melting point of 179.7 °C. Also, in series [1], the “ratio CB2 agonism over CB1 agonism” value was 646 and the EC50 is 2.4 nM. The compound also showed an EC50 in series [2] of 1550 nM.

The compound `CC(C)(C)c1nc2cc(S(=O)(=O)c3ccnc(F)c3)ccc2n1CC1CCN(C=O)CC1` [Co. No. 112] returned a melting point of 196.7 °C. Further, in series [1], the “ratio CB2 agonism over CB1 agonism” value was above 2030 and the EC50 was 4.9 nM. Also, the EC50 in series [2] is above 10000 nM.

`CC(=O)NCc1ccc(S(=O)(=O)c2ccc3c(c2)nc(C(C)(C)C)n3CC2CCOCC2)cn1` [Co. No. 117]: the melting point worked out at 199.4 °C. In series [1], the “ratio CB2 agonism over CB1 agonism” value was found to be 219 and the EC50 is 4.47 nM. In addition, the EC50 in series [2] was 977 nM.

In the case of `CC(C)(C)CCn1c(C(C)(C)C)nc2cc(S(=O)(=O)c3ccnc(F)c3)ccc21` [Co. No. 120], the melting point was determined as 131.5 °C. Moreover, in series [1], the “ratio CB2 agonism over CB1 agonism” value was above 4365 and the EC50 was 2.29 nM. In series [2], the EC50 is above 10000 nM.

Compound `CC(=O)NCCOc1cc(S(=O)(=O)c2ccc3c(c2)nc(C(C)(C)C)n3CC2CCOCC2)ccn1` [Co. No. 121] came in with a melting point of 182.3 °C. Further, in series [1], the “ratio CB2 agonism over CB1 agonism” value is reported as 912 and the EC50 was 3.09 nM. The EC50 in series [2] was 2820 nM.

Compound `CC(=O)NCCNc1cc(S(=O)(=O)c2ccc3c(c2)nc(C(C)(C)C)n3CC2CCOCC2)ccn1` [Co. No. 123] registered a melting point of 217.2 °C. For the same compound, in series [1], the “ratio CB2 agonism over CB1 agonism” value is above 2399 and the EC50 was 4.17 nM. Moreover, in series [2], the EC50 was above 10000 nM.
